In PubChem BioAssay (NCI):
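Results reflect a 48-hour exposure of cells in 96-well plates to compound at five concentrations. GI50 marks 50% less growth. Definition used: TGI = concentration required for complete inhibition of growth.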

Tests used:
Assay in all cases: inhibition of tumour cell growth, NCI panel, 48 h
MALME-3M melanoma = tested on: MALME-3M melanoma
OVCAR-5 ovarian = tested on: OVCAR-5 ovarian
SF-268 CNS = tested on: SF-268 CNS
SNB-19 CNS = tested on: SNB-19 CNS
COLO 205 colon = tested on: COLO 205 colon
CAKI-1 renal = tested on: CAKI-1 renal
SK-OV-3 ovarian = tested on: SK-OV-3 ovarian
U251 CNS = tested on: U251 CNS
T-47D breast = tested on: T-47D breast
MDA-MB-435 = tested on: MDA-MB-435

Structure (SMILES): N#C/C(=C\c1ccc(O)cc1)C(N)=O
- TGI (MALME-3M melanoma): > 100 µM
- TGI (OVCAR-5 ovarian): > 100 µM
- TGI (SF-268 CNS): > 100 µM
- TGI (SNB-19 CNS): > 100 µM
- TGI (COLO 205 colon): > 100 µM
- TGI (CAKI-1 renal): > 100 µM
- TGI (SK-OV-3 ovarian): > 100 µM
- TGI (U251 CNS): > 100 µM

Structure (SMILES): COc1cc2c(c(OC)c1OC)-c1cc(I)c(O)cc1[C@@H](NC(C)=O)CC2
- GI50 (MALME-3M melanoma): > 100 µM
- TGI (MALME-3M melanoma): > 100 µM
- GI50 (OVCAR-5 ovarian): 0.237 µM
- TGI (OVCAR-5 ovarian): > 100 µM
- GI50 (SF-268 CNS): 0.0666 µM
- TGI (SF-268 CNS): 41.1 µM
- GI50 (SNB-19 CNS): 0.0679 µM
- TGI (SNB-19 CNS): > 100 µM
- GI50 (COLO 205 colon): 0.0385 µM
- TGI (COLO 205 colon): 0.155 µM
- GI50 (CAKI-1 renal): 3.58 µM
- TGI (CAKI-1 renal): > 100 µM
- GI50 (SK-OV-3 ovarian): 0.0476 µM
- TGI (SK-OV-3 ovarian): > 65.8 µM
- GI50 (U251 CNS): 0.0483 µM
- TGI (U251 CNS): > 100 µM

Structure (SMILES): CN1C2C=CC(=O)C1C1C(=O)N(c3ccccc3)C(=O)C12 (centres undefined)
- GI50 (OVCAR-5 ovarian): 5.95 µM
- TGI (OVCAR-5 ovarian): 21.6 µM
- GI50 (T-47D breast): 5.65 µM
- TGI (T-47D breast): 22.6 µM
- GI50 (SF-268 CNS): 3.99 µM
- TGI (SF-268 CNS): 17.3 µM
- GI50 (MDA-MB-435): 3.44 µM
- TGI (MDA-MB-435): 22.8 µM
- GI50 (SNB-19 CNS): 13.3 µM
- TGI (SNB-19 CNS): 29.5 µM
- GI50 (COLO 205 colon): 7.81 µM
- TGI (COLO 205 colon): 22 µM
- GI50 (CAKI-1 renal): 1.66 µM
- TGI (CAKI-1 renal): 4.27 µM
- GI50 (SK-OV-3 ovarian): 26.7 µM
- TGI (SK-OV-3 ovarian): > 100 µM
- GI50 (U251 CNS): 7.16 µM
- TGI (U251 CNS): 20.8 µM

Structure (SMILES): FC(F)(F)c1ccccc1C1SCc2nc3ccccc3n21 (centres undefined)
- TGI (MALME-3M melanoma): > 100 µM
- TGI (OVCAR-5 ovarian): > 100 µM
- TGI (SF-268 CNS): > 100 µM
- TGI (SNB-19 CNS): > 100 µM
- TGI (COLO 205 colon): > 100 µM
- TGI (CAKI-1 renal): > 100 µM
- TGI (SK-OV-3 ovarian): > 100 µM
- TGI (U251 CNS): > 100 µM

Structure (SMILES): C=CCC(N[C@@H](CO)c1ccccc1)c1ccc2ccccc2n1 (some centres undefined)
- GI50 (MALME-3M melanoma): 88.6 µM
- TGI (MALME-3M melanoma): > 100 µM
- GI50 (OVCAR-5 ovarian): > 100 µM
- TGI (OVCAR-5 ovarian): > 100 µM
- GI50 (T-47D breast): 61.1 µM
- TGI (T-47D breast): > 100 µM
- GI50 (MDA-MB-435): > 100 µM
- TGI (MDA-MB-435): > 100 µM
- GI50 (COLO 205 colon): > 100 µM
- TGI (COLO 205 colon): > 100 µM
- GI50 (CAKI-1 renal): > 100 µM
- TGI (CAKI-1 renal): > 100 µM
- GI50 (SK-OV-3 ovarian): > 100 µM
- TGI (SK-OV-3 ovarian): > 100 µM
- GI50 (U251 CNS): > 100 µM
- TGI (U251 CNS): > 100 µM

Structure (SMILES): CC[C@H](C)[C@H](NC(=O)[C@H]1CCCCN1C)C(=O)N(C)[C@H](CCc1nc(C(=O)N[C@@H](Cc2ccccc2)C[C@H](C)C(=O)O)cs1)C(C)C
- GI50 (OVCAR-5 ovarian): 1.82 µM
- TGI (OVCAR-5 ovarian): > 25 µM
- GI50 (SF-268 CNS): 0.184 µM
- TGI (SF-268 CNS): > 25 µM
- GI50 (MDA-MB-435): 0.012 µM
- TGI (MDA-MB-435): 0.0724 µM
- GI50 (SNB-19 CNS): 0.197 µM
- TGI (SNB-19 CNS): > 25 µM
- GI50 (COLO 205 colon): 0.144 µM
- TGI (COLO 205 colon): 1.83 µM
- GI50 (SK-OV-3 ovarian): 0.585 µM
- TGI (SK-OV-3 ovarian): > 25 µM
- GI50 (U251 CNS): 0.127 µM
- TGI (U251 CNS): > 25 µM

Structure (SMILES): C[N+](C)(C)CC1CCC(C[N+](C)(C)C)C1=NO (centres undefined)
- TGI (MALME-3M melanoma): > 100 µM
- TGI (SF-268 CNS): > 100 µM
- TGI (SNB-19 CNS): > 100 µM
- TGI (COLO 205 colon): > 100 µM
- TGI (SK-OV-3 ovarian): > 100 µM
- TGI (U251 CNS): > 100 µM

Structure (SMILES): [O]=[Sn]([CH]1CCCCC1)[CH]1CCCCC1
- GI50 (MALME-3M melanoma): 0.173 µM
- TGI (MALME-3M melanoma): 0.555 µM
- GI50 (OVCAR-5 ovarian): 0.62 µM
- TGI (OVCAR-5 ovarian): 1.71 µM
- GI50 (SF-268 CNS): 0.214 µM
- TGI (SF-268 CNS): 0.654 µM
- GI50 (MDA-MB-435): 0.218 µM
- TGI (MDA-MB-435): 0.833 µM
- GI50 (SNB-19 CNS): 0.271 µM
- TGI (SNB-19 CNS): 0.95 µM
- GI50 (COLO 205 colon): 0.249 µM
- TGI (COLO 205 colon): 0.731 µM
- GI50 (CAKI-1 renal): 0.145 µM
- TGI (CAKI-1 renal): 0.341 µM
- GI50 (SK-OV-3 ovarian): 1.2 µM
- TGI (SK-OV-3 ovarian): 2.52 µM
- GI50 (U251 CNS): 0.0514 µM
- TGI (U251 CNS): 0.2 µM
